Earlier results as cited in patent US20010034023A1, “Gene sequence variations with utility in determining the treatment of disease, in genes relating to drug processing” (priority 1999, published 2001).
Counter-ions that a name gives are not always drawn.

Assays:
[1] = high dose
[2] = PDR
[3] = not given; remark: listed apart in the source
[4] = tested on: hepatitis C virus infection
[5] = Alzheimer's patients receiving Cognex

O=c1[nH]cc(F)c(=O)[nH]1 [5-fluorouracil]
patients with an objective response to the drug (advanced colorectal cancer): 20-40% | patients with a complete response (complete tumor disappearance) (advanced colorectal cancer, of the objective responders): 1-5% | patients suffering serious gastrointestinal or hematopoietic toxicity (up to, depending on the regimen): 20-30%

CC(=O)Nc1ccc(O)cc1 [Acetominophen]
dose required for significant liver injury to occur [1]: 10-15 grams

Nc1c2c(nc3ccccc13)CCCC2 [Cognex, tacrine hydrochloride]
patients showing no change or minimal worsening of their disease ([2]; Alzheimer's disease patients receiving Cognex): about 45% | patients minimally improved [2, 5]: About 58% | patients much improved [2, 5]: about 2%

NNC(=O)c1ccncc1 [INH, Isoniazid]
persons in whom subclinical liver injury occurs ([3]; persons taking INH): 10-20% | hepatotoxicity in slow acetylators ([3]; slow acetylators): more hepatotoxic

interferon alpha
patients in whom viral infection is completely and permanently eliminated [4]: less than a quarter of patients | patients receiving virtually no benefit [4]: Nearly half of patients
